Tests used:
[1] = Interconversion rates of 2′- and 3′-AADPR (HPLC, NMR); assay type: physicochemical
Description: Interconversion rates of 2′- and 3′-AADPR. Sample of both 2′- and 3′-AADPR were incubated at 15° C. and analyzed by HPLC at 40 min intervals (C-18 column; 50 mM ammonium acetate pH 5.0). The percent of the 3′-isomer at a given time was fit to the equation 3′-AADPR (%)=Pa exp (−kt)+Pf where Pa+Pf=P0; where Pa is the percent of the 3′-isomer above equilibrium at time=0, t is time and k is the first order rate constant for the conversion. Pf is the percent at equilibrium and P0 is the initial percent. HPLC and NMR analysis established the 2′- and 3′-isomers concentration as a function of time. NMR was in 10% d4-methanol/90% D2O at 0° C. or in 100% D2O at 20° C.

[2] = molecular target: T1, Sir2Af2 (Archaeoglobus fulgidus, UniProt O30124); test: Low temperature ^1H NMR analysis of Sir2p reaction products (order of product formation); assay type: biochemical; settings: 5° C.
T1 construct: made in house
T1 sequence (O30124 1-253): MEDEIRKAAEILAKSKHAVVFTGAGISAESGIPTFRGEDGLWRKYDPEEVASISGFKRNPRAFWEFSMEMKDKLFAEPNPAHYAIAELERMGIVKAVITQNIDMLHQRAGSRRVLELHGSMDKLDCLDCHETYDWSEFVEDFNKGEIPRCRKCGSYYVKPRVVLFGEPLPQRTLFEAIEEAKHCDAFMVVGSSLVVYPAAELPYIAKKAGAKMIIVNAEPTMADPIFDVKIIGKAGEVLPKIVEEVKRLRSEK
Description: Low temperature studies of Sir2Af2 to identify order of product production. Sir2Af2 catalyzed deacetylation reactions were performed at 8° C. to determine the order of product formation. A 200 μL solution containing 150 μM NAD^+, 300 μM peptide JB12, in 40 mM potassium phosphate pH 6.2 were cooled to 8° C. and then 1 μL of 9 μg/μL of Sir2Af2 was added to initiate the reaction. Reactions were assayed by HPLC using 0.5% TFA as an eluant. Peals at 17 and 20 min were used to quantitate 3′- and 2′-AADPR at 30 minute intervals.
Low temperature ^1H NMR analysis of Sir2p reaction products. A solution of 1.7 mg Sir2Af2 enzyme in 95% D2O, 50 mM potassium phosphate pH 6.3 was concentrated to 550 μL using centrifugation filtration. This sample was mixed with 2 mg JB12 peptide and cooled to 5° C. in a 600 MHz NMR spectrometer. Spectra were obtained and 280 μL of ice-chilled 22 mM NAD^+ solution in 50 mM potassium phosphate pH 6.3 in 99% D2O was added to initiate the reaction. ^1H NMR 1D spectra were obtained at intervals over 18 hr at 5° C.

[3] = molecular target: T1, Sir2Af2; test: Ara-F-NAD^+ as NAD^+ analogue: substrate and nicotinamide exchange reactions with Sir2Af2; assay type: biochemical; settings: for [Carbonyl-^14C]-nicotinamide exchange catalysed by Sir2Af2: 5 mM nicotinamide, 300 μM peptide; for Substrate in Sir2Af2 deacetylation of peptide JB12: ara-F-NAD^+ 50 μM, JB12 300 μM, pH 6.25, C-18 HPLC
Description: (§1) Ara-F-NAD^+ as an NAD^+ analogue. Ara-F NAD^+ is an inhibitor of ADP-ribosyl-transferase and was used to evaluate Sir2Af2. Ara-F-NAD^+ was synthesized as previously reported^44. Deacetylation of peptide JB12 (300 μM) by Sir2Af2 (10 μg) in the presence of ara-F-NAD^+ (50 μM) was tested in 200 μL of 40 mM potassium phosphate pH 6.25. No change of ara-F-NAD^+ was detected by C-18 reverse phase HPLC. […] A control run with […] and NAD^+ established [Carbonyl-^14C]-nicotinamide exchange into NAD^+, confirming the Sir2 base-exchange reaction. […] Inhibition of Sir2Af2 by ara-F-NAD^+ was evaluated by incubation of Sir2Af2 enzyme (7 μM) and ara-F-NAD^+ (20 μM) in the presence of 300 μM JB12 peptide in potassium phosphate pH 6.25 buffer. A reaction mixture lacking ara-F NAD^+ was the control. A positive control used the same reaction components but 500 nM CD38 in the presence of 5 μM ara-F-NAD^+. Reactions were initiated after 6 h by adding 150 μM NAD^+. Reactions were evaluated for catalytic turnover using HPLC. Catalytic turnover of Sir2Af2 was not inhibited by ara-F-NAD^+ under these reaction conditions.

[4] = molecular target: T1, Sir2Af2; test: Inhibition of Sir2Af2 catalytic turnover by ara-F-NAD^+ (HPLC); assay type: biochemical; settings: Sir2Af2 7 μM, ara-F-NAD^+ 20 μM, 300 μM JB12, 6 h then 150 μM NAD^+
Description: as §1

[5] = tested on: CD38; test: CD38 controls with ara-F-NAD^+ (base exchange, inhibition); assay type: biochemical, human
Description: as §1

[6] = cited from earlier work
[7] = tested on: ADP-ribosyltransfer enzymes; settings: cited from earlier work
[8] = tested on: Sir2; settings: cited from earlier work
[9] = Stability of authentic β-1′-AADPR (elimination as a Sir2p product); assay type: physicochemical; settings: 100 μM, 40 mM phosphate buffer pH 6.25, one hr at 55° C., HPLC
Excerpt: Elimination of β-1′-AADPR as a Sir2p product.

[10] = tested on: esterase activity; test: Breakdown of AADPR by esterase activity in hamster ovary cell extract; assay type: in vitro ADME; settings: hamster ovary cells extract
Excerpt: (§2) The use of AADPR or radiolabeled AADPR is a strategy to characterize and discover the esterases (or other enzymes) that break down or utilize AADPR in vivo. Specifically, AADPR breakdown can be measured by HPLC or TLC assay. When radiolabels are used, amounts of AADPR necessary for this purpose can be as small as 250 pmoles.

[11] = tested on: esterase activity; test: Breakdown of AADPR by esterase activity in rat liver extract; assay type: in vitro ADME
Excerpt: as §2

[12] = molecular target: T2, Sir2Af1 (Archaeoglobus fulgidus, UniProt O28597); settings: cited from earlier work
T2 construct: made in house
T2 sequence (O28597 1-245): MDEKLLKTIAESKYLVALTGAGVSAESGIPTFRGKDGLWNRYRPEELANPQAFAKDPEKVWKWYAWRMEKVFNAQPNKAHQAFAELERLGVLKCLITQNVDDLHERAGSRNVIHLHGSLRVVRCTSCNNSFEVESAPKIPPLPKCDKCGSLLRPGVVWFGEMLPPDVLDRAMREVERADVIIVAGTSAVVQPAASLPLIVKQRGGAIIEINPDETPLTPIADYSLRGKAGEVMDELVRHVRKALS

[13] = tested on: AfSir2; test: Inhibition of AfSir2 by ADPR; assay type: biochemical, Archaeoglobus fulgidus

CC(=O)O[C@H]1C(O)O[C@H](COP(=O)(O)OP(=O)(O)OC[C@H]2O[C@@H](n3cnc4c(N)ncnc43)[C@H](O)[C@@H]2O)[C@H]1O (stereo partly drawn) [2′-AADPR, 2′-O-acetyl-ADP-ribose]
rate of chemical exchange of the acetyl group ([1]; 15° C.): 0.45 h⁻¹ | α/β anomeric equilibrium rate ([1]; NMR): > 50 s⁻¹ | calculated value for k3′ to 2′ ([1]; calculated from K and the measured rate constant, 15° C.): 0.45 h⁻¹ | time to establish 2′/3′ equilibrium ([1]; physiological temperatures of 37° C.): ≤ 60 min | ratio kcat/k2′-3′ [2]: 20

CC(=O)O[C@@H]1[C@@H](COP(=O)(O)OP(=O)(O)OC[C@H]2O[C@@H](n3cnc4c(N)ncnc43)[C@H](O)[C@@H]2O)OC(O)[C@@H]1O (stereo partly drawn) [3′-AADPR, 3′-O-acetyl-ADP-ribose]
rate of chemical exchange of the acetyl group ([1]; 15° C.): 0.32 h⁻¹ | equilibrium constant K ([1]; 15° C., HPLC peak integrations of the 2′- and 3′-isomers): 1.4 | first-order rate constant for acetyl migration k3′ to 2′ ([1]; fit to exponential decay curve, 15° C.): 0.32 h⁻¹

NC(=O)c1ccc[n+]([C@@H]2O[C@H](COP(=O)([O-])OP(=O)(O)OC[C@H]3O[C@@H](n4cnc5c(N)ncnc54)[C@H](O)[C@@H]3O)[C@@H](O)[C@H]2F)c1 [ara-F-NAD^+]
[Carbonyl-^14C]-nicotinamide exchange catalysed by Sir2Af2 [3]: no radioactivity incorporated | [Carbonyl-^14C]-nicotinamide exchange catalysed by Sir2Af2 ([3]; listed as Ara-F NAD^+): did not serve as a substrate | Substrate in Sir2Af2 deacetylation of peptide JB12 [3]: No change | Substrate in Sir2Af2 deacetylation of peptide JB12 ([3]; listed as Ara-F NAD^+): did not serve as a substrate | Inhibition of Sir2Af2 catalytic turnover [4]: not inhibited | Inhibition of Sir2Af2 catalytic turnover ([4]; listed as Ara-F-NAD^+): did not inactivate | Activity (inactivation) on CD38 positive control ([5]; 500 nM CD38, 5 μM ara-F-NAD^+): activity on the control using CD38 | Base exchange with [^14C]nicotinamide catalysed by CD38 ([5]; control): full base exchange | Stability relative to NAD^+ [6]: roughly 50 times | Inhibitor of ADP-ribosyltransfer enzymes [7]: powerful inhibitor

NC(=O)c1cccnc1 [nicotinamide]
Inhibition of Sir2 [8]: inhibits the enzyme

CC(=O)O[C@@H]1O[C@H](COP(=O)(O)OP(=O)(O)OC[C@H]2O[C@@H](n3cnc4c(N)ncnc43)[C@H](O)[C@@H]2O)[C@@H](O)[C@H]1O [β-1′-AADPR]
Change of β-1′-AADPR and production of 2′- or 3′-AADPR on incubation [9]: no change

acetyl adenosine diphosphate ribose [AADPR]
Breakdown of AADPR to ADPR and acetate [10]: high esterase activity exists that can breakdown AADPR | Breakdown of AADPR to ADPR and acetate [11]: high esterase activity exists that can breakdown AADPR

acetylated BSA: acetylated BSA, a non physiologic substrate
Substrate of Sir2Af1 as reported in the literature [12]: is a substrate

adenosine diphosphate ribose [ADPR]
Inhibition of AfSir2 [13]: potent inhibitor
